According to patent EP0336976A1, “PHARMACEUTICAL PREPARATION FOR CURING MULTIPLE SCLEROSIS AND LATERAL A[…]” (VSESOJUZNY KARDIOLOGICHESKY NAUCHNY TSENTR AKADEMII …, priority 1987, dated 1989):
Where a SMILES comes first, the peptide text is derived from it. [ ]: non-standard residue; d: D form.

Legend:
[1] = system: Patienten mit amyotrophischen Lateralsklerose; experiment: Clinical trial in amyotrophic lateral sclerosis patients: course of the disease, on top of conventional nonspecific therapy; format: in vivo, Menschen; details: ALS
[2] = system: Leitungsbahnen des Hirnstammes; experiment: Recording of short-latency auditory evoked potentials on acoustic stimulation in multiple sclerosis patients; format: in vivo, Menschen; details: MS patients
Text: (§1) Bei der Behandlung der multiplen Sklerose mit dem erfindungsgemässen Präparat und mit T-Aktivin verwendete man neben einer klinischen Analyse der neurologischen Symptome auch eine Methode der Registrierung von kurzlatenten erzeugten Hörpotentialen auf die akustische Stimulation. Die Dynamik der neurologischen Symptome bewertete man in Punkten nach der Kurzkschen Skale. Man führt die Analyse der Punkten-Summe nach der Skale des neurologischen Defizits durch sowie nach der Skale der Invalidisierung (sich verschlimmernde Entwicklung) unter Berücksichtigung der sozialen Adaptation des jeweiligen Patienten durch. Bei der Untersuchung der kurzlatenten erzeugten Hörpotentiale erfolgte die Summierung von 3000 Antworten und es wurden 7 Komponenten registriert, die den funktionellen Zustand folgender Pegel eines Höranalysators widerspiegeln: I - Schneke des Hörnervs, II -Kerne des Cochlearkomplexes, III- Nucleus der oberen Olive, IV - Nucleus der lateralen Schleife, V - Kerne der Höcker der Vierhügelplatte, VI - Kerne mittlerer Kniehöcker, VII - Kerne Auditus kortex. Alle Komponenten wurden nach den Werten der Zwischenpeakintervalle und den Relationen der Peakamplituden analysiert. Die Kontrollgruppe für die Untersuchung der kurzlatenten erzeugten Hörpotentiale bildeten I2 praktisch gesunde Personen.
(§2) Die Untersuchung der Patienten erfolgte vor der Verordnung der Präparate, in 5 und in I4 Tagen nach dem Beginn ihrer Verabreichung.
Die Hauptgruppe der Patienten, die das erfindungsgemässe Präparat verabreicht bekamen, bestand aus 24 Personen (6 Männer und I8 Frauen) im alter von 20 bis 49 Jahren mit zerebrospinaler Form der multiplen Sklerose. Die Dauer der Erkrankung betrug von 2 bis 7 Jahren. Das erfindungsgemässe Präparat führe man den Patienten intramuskulär zu je I bis 2 mg zweimal am Tage innerhalb von 5 Tagen ein. Die Gruppe der Patienten, die das T-Aktivin bekam, bestand aus I4 Personen (6 Männer und 8 Frauen) im Alter von 23 bis 47 Jahren mit zerebrospinaler Form der multiplen Sklerose. Die Dauer der Erkrankung betrug von 2 bis 7 Jahren. […]

[3] = system: Patienten mit zerebrospinaler Form der multiplen Sklerose; experiment: Clinical trial in multiple sclerosis patients: neurological status scored in points (Kurtzke scale: neurological deficit and progression/disability scale), on top of basic therapy; format: in vivo, Menschen
Method: Das erfindungsgemässe Präparat für die Behandlung der multiplen Sklerose und der myotrophischen Lateralsklerose wurde in einer Klinik an Menschen erprobt.
Bei der multiplen Sklerose erfolgte die Behandlung mit dem angemeldeten Präparat unter Anwendung der Basistherapie, die die Vitamine der B-Gruppe, Glutaminsäure, Nikotinsäure, Zerebrolysin, Midokalm, und Essentiale einschliesst. Das erfindungsgemässe Präparat wurde den Patienten intramuskulär zu je I bis 5 mg des Wirkstoffes, der in I ml einer physiologischen Lösung aufgelöst wird, zweimal pro Tag innerhalb von 5 Tagen eingeführt.
Bei der Behandlung der multiplen Sklerose wurde die Wirkung des erfindungsgemässen Präparates mit der Wirkung von T-Aktivin verglichen, das unter Anwendung der gleichen wie bei der Behandlung mit dem angemeldeten Präparat Basistherapie eingeführt wurde. Das T-Aktivin führte man den Patienten intramuskulär einmal pro Tag zu je I ml I,0%iger Lösung innerhalb von 5 Tagen ein. Nach einer 7-tägigen Unterbrechung führte man das T-Aktivin in der gleichen dosis während 2 Tage ein.
as §1, §2
Hervorzuheben ist, dass bei den Patienten, denen das erfindungsgemässe Präparat und das T-Aktivin verordnet wurden, innnerhalb der letzten zwei Monate keine Dynamik im neurologischen Status nachgewiesen wurde. Das gab die Möglichkeit, die Verbesserung des Zustandes als Effekt von der Verordnung der Präparate zu betrachten.
Die Hauptgruppe der Patienten, die das erfindungsgemässe Präparat verabreicht bekamen, bestand aus 24 Personen (6 Männer und I8 Frauen) im alter von 20 bis 49 Jahren mit zerebrospinaler Form der multiplen Sklerose. Die Dauer der Erkrankung betrug von 2 bis 7 Jahren. Das erfindungsgemässe Präparat führe man den Patienten intramuskulär zu je I bis 2 mg zweimal am Tage innerhalb von 5 Tagen ein. Die Gruppe der Patienten, die das T-Aktivin bekam, bestand aus I4 Personen (6 Männer und 8 Frauen) im Alter von 23 bis 47 Jahren mit zerebrospinaler Form der multiplen Sklerose. Die Dauer der Erkrankung betrug von 2 bis 7 Jahren.
Das T-Aktivin führte man den patienten intramuskulär zu je I ml 0,I%iger Lösung einmal pro Tag innerhalb von 5 Tagen ein. […]
Bei der Einlieferung ins Krankenhaus wurden dem Patienten Vitamine BI und B₆, Glutaminsäure, innerhalb eines Monates Zerebrolysin verabreicht, durchgeführt wurden kurze Kuren mit Midokalm und Essentiale. […]

[4] = Toxicity (LD50); details: in vivo; species and route not given; read-out: LD₅₀
[5] = of 62 patients, listed as Präparat + Nichtspezifische Therapie
[6] = of 62 patients, pronounced plus moderate improvement
[7] = patients with sekundärer Verschlimmerung, effect mainly am I5. Tag
[8] = patients: Leichter Grad, Am I5. Tag
[9] = patients: Remittierend, a) Verschlimmerung, Am I5. Tag

CC(C)C[C@H](NC(=O)[C@H](Cc1ccccc1)NC(=O)CNC(=O)[C@@H](C)NC(=O)[C@@H](N)Cc1ccc(O)cc1)C(=O)N[C@@H](CCCNC(=N)N)C(=O)O [erfindungsgemässe Präparat, Tyr-D-Ala-Gly-Phe-Leu-Arg] (H-Y[dA]GFLR-OH)
Verbesserung Ausgeprägt, number of patients ([1]; of 62 patients): 8 | Verbesserung Mässig, number of patients ([1]; of 62 patients): 16 | Verbesserung Mässig, share of patients ([1]; of 62 patients): 26% | keine Anzeichen einer sich verschlimmernden Entwicklung (stabiler Zustand oder Verbesserung), share of patients ([1]; of 62 patients): 84% | Sich verschlimmernde Entwicklung, number of patients [1, 5]: 10 | Sich verschlimmernde Entwicklung, share of patients [1, 5]: 16% | Verbesserung Ausgeprägt, share of patients [1, 5]: 13% | Verbesserung des Zustandes, number of patients [1, 6]: 24 Personen | Verbesserung des Zustandes, share of patients [1, 6]: 39% | Fehlen der Dynamik, number of patients ([1]; of 62 patients, stable state): 28 | Fehlen der Dynamik, share of patients ([1]; of 62 patients, stable state): 45% | keine Anzeichen einer sich verschlimmernden Entwicklung, number of patients ([1]; of 62 patients, stable state or improvement): 52 Personen | sich verschlimmernde Entwicklung seltener im Vergleich zur Kontrollgruppe ([1]; preparation plus conventional therapy vs conventional therapy alone): 4,8 fache | Parese in den Füssen ([1]; Beispiel 3, Patient, two 2-week courses of I mg i.m. twice daily, at admission 2 Punkte): 0 Punkte | Paresegrad in proximalen Abschnitten von Beinen und Armen ([1]; Beispiel 4, Patient E., 4I years, two 2-week courses of 2 mg i.m. twice daily): 0 Punkte | Parese der Extremitäten ([1]; Beispiel 5, Patient M., second stay, two 2-week courses of I mg i.m. twice daily): 0 Punkte | Differenzen der Latenzwerte III Peak-I Peak ([2]; Am 6. Tag): 2,22±0,05 | Differenzen der Latenzwerte III Peak-I Peak ([2]; Am I5. Tag): 2,20±0,06 | Verhältnis der Amplituden V Peak - I Peak ([2]; Am I5. Tag): 0,88±0,23 | Punkte nach der Skale der sich verschlimmernden Entwicklung ([3]; Beispiel I, Patientin K., 46 years, progredient MS, after 5 days of I mg twice daily, before treatment 6): 4 | klinische Verbesserung, Anteil der Patienten ([3]; MS patients, whole group, after the course of treatment): 89% | Verringerung der Summe der Punkte nach der Skale des neurologischen Defizits ([3]; patients with mittlerem Schweregrad, am 6. Tag): 4,3 Punkte | Senkung des Indexes nach der Skale der sich verschlimmernden Entwicklung [3, 7]: 2,4 Punkte | Verringerung der Summe der Punkte nach der Skale des neurologischen Defizits [3, 7]: 6,3 Punkte | Gesamtpunktenzahl nach der Skala des neurologischen Defizits [3, 8]: 8,6±0,9 Punkte | Index nach der Skala der sich verschlimmernden Entwicklung [3, 8]: 2,8±0,5 Punkte | Index nach der Skala der sich verschlimmernden Entwicklung ([3]; patients: Leichter Grad, Vor der Behandlung (baseline)): 3,7±0,4 Punkte | Index nach der Skala der sich verschlimmernden Entwicklung ([3]; patients: Mittlerer Grad, Am 6. Tag): 4,9±0,3 Punkte | Index nach der Skala der sich verschlimmernden Entwicklung ([3]; patients: Mittlerer Grad, Am I5. Tag): 4,4±0,6 Punkte | Index nach der Skala der sich verschlimmernden Entwicklung ([3]; patients: Remittierend, a) Verschlimmerung, Am 6. Tag): 3 Punkte | Gesamtpunktenzahl nach der Skala des neurologischen Defizits [3, 9]: 5 Punkte | Index nach der Skala der sich verschlimmernden Entwicklung [3, 9]: 2 Punkte | Index nach der Skala der sich verschlimmernden Entwicklung ([3]; patients: Remittierend, a) Verschlimmerung, Vor der Behandlung (baseline)): 5 Punkte | Index nach der Skala der sich verschlimmernden Entwicklung ([3]; patients: Remittierend, b) Remission, Am 6. Tag): 3,3±0,5 Punkte | Index nach der Skala der sich verschlimmernden Entwicklung ([3]; patients: Remittierend, b) Remission, Am I5. Tag): 3,4±0,5 Punkte | Index nach der Skala der sich verschlimmernden Entwicklung ([3]; patients: Remittierend, b) Remission, Vor der Behandlung (baseline)): 4,3±0,8 Punkte | Index nach der Skala der sich verschlimmernden Entwicklung ([3]; patients: Remittierend, c) sekundäre Verschlimmerung, Am 6. Tag): 4,8±2,0 Punkte | Index nach der Skala der sich verschlimmernden Entwicklung ([3]; patients: Remittierend, c) sekundäre Verschlimmerung, Am I5. Tag): 3,5±0,4 Punkte | Verringerung des Index nach der Skale der Weiterentwicklung der Krankheit ([3]; single patient in acute state of MS, zum I5. Tag): 3 Punkte | Verringerung der Summe der Punkte nach der Skale des neurologischen Defizits ([3]; whole group, in 5 Tagen nach dem Beginn der Behandlung): 2,9 Punkte | Verringerung der Summe der Punkte nach der Skale des neurologischen Defizits ([3]; whole group, in I4 Tagen nach dem Beginn der Behandlung): 3,8 Punkte | LD50 [4]: 520 mg/kg
